Source: patent US20160271114A1, “Composition for preventing or treating bacterial infectious disease comprising phospholipase D2 inhibitor” (RESEARCH & BUSINESS FOUNDATION SUNGKYUNKWAN UNIVERSITY, priority 2015, published 2016)

How the values were obtained:
GRK2 = assay: LPS-induced GRK2 level in neutrophils (western blotting); format: cell-based, mice; details: WT neutrophils, LPS 1 μg/ml; CAY10594 at 10 μM; FIG. 18B, FIG. 19
Protocol: First, neutrophils were isolated from the bone marrow of WT or PLD2 knockout (KO) mice and stimulated with 1 μg/ml of LPS for 1 hour, and then GRK2 levels were analyzed by western blotting.
Afterward, neutrophils isolated from the bone marrow of the WT mice were cultured with 10 μM of a vehicle (0.5% Tween 80 in PBS) or a PLD2 inhibitor (CAY10594) before being cultured with LPS (1 μg/ml), and then GRK2 levels were analyzed by western blotting.
The control of LPS-induced GRK2 expression by an inhibitor for an intracellular signaling pathway (BAY11-7082) was analyzed by western blotting.

[1] = test system: neutrophils isolated from the bone marrow of the WT mice; assay: NET formation in ionomycin-stimulated neutrophils (SYTOX Green staining); format: cell-based; details: 10 μM, then 5 μM ionomycin, FIG. 10B
Protocol: Neutrophils were isolated from the bone marrow of the WT or PLD2 knockout (KO) mice. More particularly, bone marrow cells were isolated from a femur and a tibia using an HBSS-EDTA solvent. A cell suspension was centrifuged at 400 g for 10 minutes, resuspended cells were loaded onto 52%, 69%, and 78% Percoll gradients, and centrifuged at 1500 g for 30 minutes without breaking. The cells were isolated on a 69%/78% interface layer, and RBCs were removed by hypotonic lysis. 95% or more of the isolated cells were identified to be Ly6G-positive using a flow cytometer. The isolated neutrophils (1×10^5 cells) were seeded on 0.001% poly-lysine-coated 12-mm cover slips of 24-well plates, and stimulated with 5 μM ionomycin. Afterward, the cells were fixed with 4% paraformaldehyde and stained by SYTOX Green nucleic acid staining (5 μM). The NET was visualized using a Zeiss Axiovert fluorescent microscope (Zeiss, Oberkochen, Germany), and images were taken by a Nikon Digital camera.
Additionally, to confirm the variations of NET formation when a PLD2 inhibitor was treated, neutrophils isolated from the bone marrow of the WT mice were cultured with 10 μM of a vehicle (0.5% Tween 80 in PBS) or a PLD2 inhibitor (CAY10594), and then stimulated with 5 μM ionomycin.

CXCR2 = CXCR2 surface expression in LPS-stimulated neutrophils (flow cytometry); format: cell-based, mice; details: WT neutrophils, LPS 1 μg/ml; FIG. 17D, FIG. 20A
WT neutrophils = assay: Ionomycin-induced intracellular calcium mobilization (Fura-2/AM); format: cell-based, mice; details: 10 μM before 5 μM ionomycin, FIG. 15
Protocol: Subsequently, for individual analysis, the cells were aliquoted (2×10^6 cells/1 ml of Locke's solution containing 154 mM NaCl, 5.6 mM KCl, 1.2 mM MgCl2, 5 mM HEPES [pH 7.3], 10 mM glucose, and 2 mM CaCl2). Afterward, the cells were stimulated with 5 μM ionomycin. Meanwhile, to check the case of the treatment with a PLD2 inhibitor, the cells aliquoted from the WT mouse were cultured with 10 μM of a vehicle (0.5% Tween 80 in PBS) or a PLD2 inhibitor (CAY10594) before being stimulated with ionomycin. A fluorescence change at an emission wavelength of 500 nm was measured using an RF-5301PC spectrofluorophotometer (Shimadzu Instruments Inc., Kyoto, Japan) at excitation wavelengths of 340 nm and 380 nm A [Ca^2+]i increase causes an increase in the fluorescence ratio at an excitation efficiency of 340 to 380 nm, and [Ca^2+]i was calculated using the fluorescence ratio according to Equation 5 of Grynkiewicz et al (Grynkiewicz et al., 1985).

[2] = test system: spleen cells isolated from the WT mice; assay: LPS-induced inflammatory cytokine/chemokine production in spleen cells (ELISA); format: cell-based; details: 10 μM for 30 minutes before LPS (1 μg/ml) for 24 hours; compared with vehicle; FIG. 5B
Protocol: Spleen cells (3×10^6 cells/0.3 ml) isolated from WT or PLD2 knockout (KO) mice were cultured in RPMI 1640 medium containing 5% fetal bovine serum (FBS) in 96-well plates and placed in a 5% CO2 incubator at 37° C. Afterward, the spleen cells were incubated with LPS (1 μg/ml) for 24 hours, and the expression of cytokines and chemokines in the spleen cells was measured by ELISA (e-Bioscience, San Diego, Calif.).
Additionally, to examine the effect of a PLD2 inhibitor on cytokine and chemokine production, before additional culturing with LPS (1 μg/ml) for 24 hours, the spleen cells isolated from the WT mice were cultured with 10 μM of a vehicle (0.5% Tween 80 in PBS) or a PLD2 inhibitor (CAY10594) for 30 minutes. A cell-free supernatant was collected and centrifuged, and the cytokines and the chemokines were detected by ELISA (e-Bioscience, San Diego, Calif.) according to the manufacturer's instructions.

CLP mice = assay: Survival rate in CLP-induced sepsis models, WT mice; format: in vivo; details: WT mice after CLP surgery; 10 mg/kg subcutaneous at 2, 14, 26 and 38 hours; monitored for 10 days; FIG. 1B
Protocol: (§1) C57Bl/6 mice were obtained from Orient Bio (Seongnam, Korea). PLD2 knockout (KO) mice were prepared by the method described in a previous study (Ghim, J., J. S. Moon, C. S. Lee, J. Lee, P. Song, A. Lee, J. H. Jang, D. Kim, J. H. Yoon, Y. J. Koh, C. Chelakkot, B. J. Kang, J. M. Kim, K. L. Kim, Y. R. Yang, Y. Kim, S. H. Kim, D. Hwang, P. G. Suh, G. Y. Koh, Y. Y. Kong, and S. H. Ryu, 2014, “Endothelial deletion of phospholipase D2 reduces hypoxic response and pathological angiogenesis,” Arterioscler. Thromb. Vasc. Biol., 34:1697-1703.) All experiments involving animals received the approval of the Institutional Review Committee for Animal Care and Use at the medical school of Sungkyunkwan University. Cecal ligation and puncture (CLP) sepsis models were prepared by the method described in a previous study (Kim, S. D., H. Y. Lee, J. W. Shim, H. J. Kim, Y. H. Yoo, J. S. Park, S. H. Baek, B. A. Zabel, and Y. S. Bae, 2011, “Activation of CXCR2 by extracellular matrix degradation product acetylated Pro-Gly-Pro has therapeutic effects against sepsis,” Am. J. Respir. Crit. Care Med., 184:243-251.) That is, mice were anesthetized with 50 mg/kg of Zoletil and 10 mg/kg of Rompun through intraperitoneal injection, and an abdominal midline incision was made to expose the cecum. […]

[3] = test system: neutrophils isolated from the bone marrow of WT mice; assay: CXCL2-induced chemotactic migration of LPS-stimulated neutrophils; format: cell-based; details: LPS 1 μg/ml, FIG. 20B
PLD2 knockout (KO) mice = assay: Survival rate of PLD2 knockout (KO) mice after CLP surgery with CXCR2 antagonist treatment; format: in vivo; details: treated with the CXCR2 antagonist, FIG. 21
Protocol: as §1

| Structure (SMILES) | upregulation of LPS-induced GRK2 / LPS-induced GRK2 expression (GRK2) | NET formation caused by ionomycin stimulation [1] | downregulation of LPS-induced CXCR2 (CXCR2) | ionomycin-induced intracellular calcium mobilization (WT neutrophils) | CCL5 secretion [2] | CXCL1 secretion [2] | IL-1β secretion [2] | IL-6 secretion [2] | TNF-α secretion [2] | survival rate (CLP mice) [%] | CXCL2-induced chemotactic migration of the neutrophils by LPS stimulation [3] | survival of PLD2 knockout (KO) mice after CLP surgery (PLD2 knockout (KO) mice) |
| --- | --- | --- | --- | --- | --- | --- | --- | --- | --- | --- | --- | --- |
| O=C(NCCN1CCC2(CC1)C(=O)NCN2c1ccccc1)c1ccc2ccccc2c1 [CAY10594, N-[2-(4-oxo-1-phenyl-1,3,8-triazaspiro[4,5]decan-8-yl)ethyl]-2-naphthalenecarboxamide] | blocked | increased | recovered | improved | considerably decreased | considerably decreased | considerably decreased | considerably decreased | considerably decreased | 40 | – | – |
| Cc1ccc(S(=O)(=O)/C=C/C#N)cc1 [BAY11-7082] | completely inhibited | – | significantly diminished | – | – | – | – | – | – | – | partially but significantly recovered | – |
| O=C(Nc1ccc([N+](=O)[O-])cc1O)Nc1ccccc1Br [SB225002] | – | – | – | – | – | – | – | – | – | – | – | all of the mice died |
